± gives the uncertainty stated by the source.
Experiment: xn = mol fraction of the nth substance listed

CCCCC(CC)CN (stereo not drawn) + COCCOCCOC
viscosity [mPa·s], 101.33 kPa
Conditions	x2 = 0.0967	x2 = 0.194	x2 = 0.292	x2 = 0.391	x2 = 0.491	x2 = 0.591	x2 = 0.692	x2 = 0.794	x2 = 0.897
303.2 K	0.98 ± 0.05	0.97 ± 0.06	0.96 ± 0.05	0.95 ± 0.05	0.94 ± 0.05	0.93 ± 0.05	0.92 ± 0.05	0.93 ± 0.05	0.94 ± 0.05
313.2 K	0.86 ± 0.04	0.85 ± 0.04	0.84 ± 0.04	0.82 ± 0.04	0.81 ± 0.04	0.8 ± 0.04	0.79 ± 0.04	0.8 ± 0.04	0.81 ± 0.04

CCCCC(CC)CN (stereo not drawn) + COCCOCCOCCOC
viscosity [mPa·s], 101.33 kPa
Conditions	x2 = 0.0746	x2 = 0.153	x2 = 0.237	x2 = 0.326	x2 = 0.42	x2 = 0.521	x2 = 0.629	x2 = 0.744	x2 = 0.867
303.2 K	1.02 ± 0.05	1.05 ± 0.07	1.13 ± 0.06	1.19 ± 0.06	1.25 ± 0.06	1.32 ± 0.07	1.39 ± 0.08	1.54 ± 0.08	1.64 ± 0.08
313.2 K	0.88 ± 0.04	0.9 ± 0.05	0.97 ± 0.05	1.01 ± 0.05	1.06 ± 0.05	1.11 ± 0.06	1.16 ± 0.06	1.31 ± 0.07	1.39 ± 0.07

CCCCC(CC)CN (stereo not drawn) + COCCOCCOCCOCCOC
viscosity [mPa·s], 101.33 kPa
Conditions	x2 = 0.0607	x2 = 0.127	x2 = 0.199	x2 = 0.279	x2 = 0.368	x2 = 0.466	x2 = 0.576	x2 = 0.699	x2 = 0.84
303.2 K	1.04 ± 0.06	1.14 ± 0.1	1.26 ± 0.06	1.39 ± 0.09	1.58 ± 0.09	1.74 ± 0.1	1.99 ± 0.11	2.24 ± 0.13	2.55 ± 0.14
313.2 K	0.89 ± 0.05	0.97 ± 0.05	1.07 ± 0.06	1.16 ± 0.06	1.3 ± 0.07	1.43 ± 0.08	1.59 ± 0.09	1.87 ± 0.11	2.09 ± 0.12

COCOCOCOCOC + COCOCOC
100 kPa
Conditions	viscosity [mPa·s]
298.15 K, x2 = 0.65	1.125 ± 0.053
303.15 K, x2 = 0.12	1.575 ± 0.055

COCOCOCOCOC + COCOCOCOC
Conditions	viscosity [mPa·s]
293.15 K, 100 kPa, x2 = 0.12	1.895 ± 0.054

Clc1cccc2ccccc12 + COc1ccccc1
viscosity [mPa·s], 101.33 kPa
Conditions	x1 = 0.0985	x1 = 0.1969	x1 = 0.2977	x1 = 0.3974	x1 = 0.4997	x1 = 0.5959	x1 = 0.6962	x1 = 0.7827	x1 = 0.8985
298.15 K	1.025 ± 0.026	1.116 ± 0.03	1.262 ± 0.035	1.409 ± 0.042	1.568 ± 0.05	1.72 ± 0.058	1.896 ± 0.069	2.096 ± 0.081	2.425 ± 0.1
303.15 K	0.946 ± 0.025	1.045 ± 0.028	1.159 ± 0.033	1.291 ± 0.038	1.43 ± 0.045	1.566 ± 0.053	1.724 ± 0.063	1.891 ± 0.073	2.18 ± 0.091
308.15 K	0.878 ± 0.023	0.966 ± 0.026	1.069 ± 0.03	1.185 ± 0.035	1.312 ± 0.042	1.431 ± 0.049	1.57 ± 0.057	1.717 ± 0.067	1.973 ± 0.083

Clc1ccccc1 + COc1ccccc1
Conditions	viscosity [mPa·s]
293.15 K, 101.33 kPa, x2 = 0.0976	0.8705 ± 0.046
293.15 K, 101.33 kPa, x2 = 0.1922	0.8967 ± 0.047
293.15 K, 101.33 kPa, x2 = 0.2893	0.9253 ± 0.049
293.15 K, 101.33 kPa, x2 = 0.3873	0.9512 ± 0.05
293.15 K, 101.33 kPa, x2 = 0.493	0.9898 ± 0.052
293.15 K, 101.33 kPa, x2 = 0.5987	0.967 ± 0.051
293.15 K, 101.33 kPa, x2 = 0.7059	1.007 ± 0.053
293.15 K, 101.33 kPa, x2 = 0.7916	1.072 ± 0.056
293.15 K, 101.33 kPa, x2 = 0.905	1.107 ± 0.058
298.15 K, 101 kPa, x2 = 0.0994	0.7921 ± 0.021
298.15 K, 101 kPa, x2 = 0.2	0.8143 ± 0.021
298.15 K, 101 kPa, x2 = 0.2957	0.8336 ± 0.022
298.15 K, 101 kPa, x2 = 0.3982	0.8576 ± 0.022
298.15 K, 101 kPa, x2 = 0.5028	0.88 ± 0.023
298.15 K, 101 kPa, x2 = 0.6002	0.9024 ± 0.023
298.15 K, 101 kPa, x2 = 0.7006	0.9275 ± 0.024
298.15 K, 101 kPa, x2 = 0.7995	0.9474 ± 0.025
298.15 K, 101 kPa, x2 = 0.8997	0.9779 ± 0.025
298.15 K, 101.33 kPa, x2 = 0.0976	0.8217 ± 0.043
298.15 K, 101.33 kPa, x2 = 0.1922	0.8474 ± 0.044
298.15 K, 101.33 kPa, x2 = 0.2893	0.8642 ± 0.045
298.15 K, 101.33 kPa, x2 = 0.3873	0.8824 ± 0.046
298.15 K, 101.33 kPa, x2 = 0.493	0.9356 ± 0.049
298.15 K, 101.33 kPa, x2 = 0.5987	0.9051 ± 0.048
298.15 K, 101.33 kPa, x2 = 0.7059	0.9242 ± 0.049
298.15 K, 101.33 kPa, x2 = 0.7916	0.9965 ± 0.052
298.15 K, 101.33 kPa, x2 = 0.905	1.037 ± 0.054
303.15 K, 101 kPa, x2 = 0.0864	0.7392 ± 0.0072
303.15 K, 101 kPa, x2 = 0.0994	0.7495 ± 0.019
303.15 K, 101 kPa, x2 = 0.1933	0.7667 ± 0.0074
303.15 K, 101 kPa, x2 = 0.2	0.7657 ± 0.02
303.15 K, 101 kPa, x2 = 0.2875	0.79 ± 0.0076
303.15 K, 101 kPa, x2 = 0.2957	0.785 ± 0.02
303.15 K, 101 kPa, x2 = 0.3805	0.8112 ± 0.0078
303.15 K, 101 kPa, x2 = 0.3982	0.8026 ± 0.021
303.15 K, 101 kPa, x2 = 0.4904	0.8348 ± 0.008
303.15 K, 101 kPa, x2 = 0.5028	0.8232 ± 0.021
303.15 K, 101 kPa, x2 = 0.5826	0.8538 ± 0.0082
303.15 K, 101 kPa, x2 = 0.6002	0.8438 ± 0.022
303.15 K, 101 kPa, x2 = 0.6914	0.8755 ± 0.0084
303.15 K, 101 kPa, x2 = 0.7006	0.8635 ± 0.022
303.15 K, 101 kPa, x2 = 0.779	0.8922 ± 0.0085
303.15 K, 101 kPa, x2 = 0.7995	0.8808 ± 0.023
303.15 K, 101 kPa, x2 = 0.8905	0.9132 ± 0.0087
303.15 K, 101 kPa, x2 = 0.8997	0.9091 ± 0.024
308.15 K, 101 kPa, x2 = 0.0994	0.7047 ± 0.018
308.15 K, 101 kPa, x2 = 0.2	0.7212 ± 0.019
308.15 K, 101 kPa, x2 = 0.2957	0.7354 ± 0.019
308.15 K, 101 kPa, x2 = 0.3982	0.7535 ± 0.019
308.15 K, 101 kPa, x2 = 0.5028	0.7693 ± 0.02
308.15 K, 101 kPa, x2 = 0.6002	0.7866 ± 0.02
308.15 K, 101 kPa, x2 = 0.7006	0.8038 ± 0.021
308.15 K, 101 kPa, x2 = 0.7995	0.8201 ± 0.021
308.15 K, 101 kPa, x2 = 0.8997	0.8444 ± 0.022
313.15 K, 101 kPa, x2 = 0.0994	0.6642 ± 0.017
313.15 K, 101 kPa, x2 = 0.2	0.6768 ± 0.018
313.15 K, 101 kPa, x2 = 0.2957	0.6921 ± 0.018
313.15 K, 101 kPa, x2 = 0.3982	0.7064 ± 0.018
313.15 K, 101 kPa, x2 = 0.5028	0.7227 ± 0.019
313.15 K, 101 kPa, x2 = 0.6002	0.7366 ± 0.019
313.15 K, 101 kPa, x2 = 0.7006	0.7511 ± 0.019
313.15 K, 101 kPa, x2 = 0.7995	0.7649 ± 0.02
313.15 K, 101 kPa, x2 = 0.8997	0.7855 ± 0.02

CCCCn1cc[n+](C)c1.F[P-](F)(F)(F)(F)F + CS(C)=O
Conditions	viscosity [mPa·s]
298.15 K, 101 kPa, x1 = 0.7812	117.5 ± 28
